How the values were obtained:
Assay in all cases: relative viability (nuclei count vs DMSO), 5 days (fraction); higher = more cells survive
GSK-J4 + Trametinib = compound: CCOC(=O)CCNc1cc(N2CCc3ccccc3CC2)nc(-c2ccccn2)n1 [GSK-J4] + CC(=O)Nc1cccc(-n2c(=O)n(C3CC3)c(=O)c3c(Nc4ccc(I)cc4F)n(C)c(=O)c(C)c32)c1 [Trametinib] (partner 0.02 µM)
How it was run: (§1)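 Relative viability divides the nuclei count in treated wells by that in vehicle wells. Lung cancer cell lines were seeded in 1536-well plates, dosed by pin tool the next day, and fixed and stained after 5 days in one step with final 0.05% Triton X-100, 1% formaldehyde and 1 ug/ml Hoechst. Dosing was a single drug or a fixed anchor-drug dose plus five library-drug doses (not always all listed) in √10 steps, and values are medians of duplicate plates imaged at 4×.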

GSK-J4 + Pictilisib = compound: CCOC(=O)CCNc1cc(N2CCc3ccccc3CC2)nc(-c2ccccn2)n1 [GSK-J4] + CS(=O)(=O)N1CCN(Cc2cc3nc(-c4cccc5[nH]ncc45)nc(N4CCOCC4)c3s2)CC1 [Pictilisib] (partner 1 µM)
How it was run: as §1

AZ3146 + Phenformin = compound: CN1CCC(CC1)OC2=CC(=C(C=C2)NC3=NC=C4C(=N3)N(C(=O)N4C)C5CCCC5)OC [AZ3146] + N=C(N)NC(=N)NCCc1ccccc1 [Phenformin] (partner 250 µM)
How it was run: as §1

GSK-J4 + AZD7762 = compound: CCOC(=O)CCNc1cc(N2CCc3ccccc3CC2)nc(-c2ccccn2)n1 [GSK-J4] + NC(=O)Nc1cc(-c2cccc(F)c2)sc1C(=O)N[C@H]1CCCNC1 [AZD7762] (partner 0.2 µM)
How it was run: as §1

| Cell Line | relative viability (GSK-J4 + Trametinib; first compound 0.5 µM) | relative viability (GSK-J4 + Trametinib; first compound 1.581 µM) | relative viability (GSK-J4 + Trametinib; first compound 5 µM) | relative viability (GSK-J4 + Trametinib; first compound 15.81 µM) | relative viability (GSK-J4 + Trametinib; first compound 50 µM) | relative viability (GSK-J4 + Pictilisib; first compound 0.5 µM) | relative viability (GSK-J4 + Pictilisib; first compound 1.581 µM) | relative viability (GSK-J4 + Pictilisib; first compound 5 µM) | relative viability (GSK-J4 + Pictilisib; first compound 15.81 µM) | relative viability (GSK-J4 + Pictilisib; first compound 50 µM) | relative viability (AZ3146 + Phenformin; first compound 0.08 µM) | relative viability (AZ3146 + Phenformin; first compound 0.253 µM) | relative viability (AZ3146 + Phenformin; first compound 0.8 µM) | relative viability (AZ3146 + Phenformin; first compound 2.53 µM) | relative viability (AZ3146 + Phenformin; first compound 8 µM) | relative viability (GSK-J4 + AZD7762; first compound 0.5 µM) | relative viability (GSK-J4 + AZD7762; first compound 1.581 µM) | relative viability (GSK-J4 + AZD7762; first compound 5 µM) | relative viability (GSK-J4 + AZD7762; first compound 15.81 µM) | relative viability (GSK-J4 + AZD7762; first compound 50 µM) |
| --- | --- | --- | --- | --- | --- | --- | --- | --- | --- | --- | --- | --- | --- | --- | --- | --- | --- | --- | --- | --- |
| NCI-H2009 | 0.262 | 0.266 | 0.195 | 0.252 | 0.199 | 0.816 | 0.317 | 0.673 | 0.85 | 0.428 | 0.478 | 0.494 | 0.402 | 0.386 | 0.311 | – | – | – | – | – |
| COR-L 105 | 0.467 | – | 0.46 | 0.458 | 0.451 | 0.519 | 0.414 | 0.375 | 0.402 | 0.36 | 0.548 | 0.451 | 0.505 | 0.388 | 0.294 | – | – | – | – | – |
| NCI-H1623 | – | – | – | – | – | – | – | – | – | – | 0.586 | 0.534 | 0.591 | 0.607 | 0.565 | – | – | – | – | – |
| HCC-827 | 0.566 | 0.58 | 0.72 | 0.448 | 0.513 | 0.945 | 1.13 | 1.14 | 0.949 | 1.03 | 0.443 | 0.372 | 0.401 | 0.416 | 0.348 | 0.203 | 0.565 | 0.252 | 0.197 | 0.21 |
| EMC-BAC-2 | 0.901 | 0.819 | – | 0.777 | 0.831 | 0.627 | 0.597 | 0.423 | 0.598 | 0.52 | 0.413 | 0.465 | 0.53 | 0.533 | 0.478 | 1.12 | 0.831 | – | 1.07 | 0.893 |
| NCI-H1703 | – | – | – | – | – | 0.254 | 0.259 | 0.232 | 0.195 | 0.275 | – | – | – | – | – | 0.117 | – | 0.113 | 0.119 | 0.119 |
| NCI-H2170 | 0.852 | 0.882 | 0.958 | 0.872 | 0.829 | 0.325 | 0.381 | 0.27 | 0.357 | 0.221 | 0.352 | 0.434 | 0.338 | 0.364 | 0.357 | 0.776 | 0.839 | 0.774 | 0.667 | 0.836 |
| NCI-H1755 | 0.809 | 0.72 | 0.754 | 0.649 | 0.65 | 0.453 | 0.38 | 0.378 | 0.387 | 0.331 | 0.548 | 0.577 | 0.57 | 0.601 | 0.569 | 0.42 | 0.622 | 0.294 | 0.4 | 0.387 |
| ChaGo-K-1 | 0.934 | – | 0.939 | 0.841 | 0.808 | 0.864 | – | 0.655 | 0.82 | 0.596 | 0.581 | 0.452 | 0.474 | 0.426 | 0.333 | 0.873 | – | 0.774 | 0.912 | 0.766 |
| EKVX | 0.337 | – | 0.515 | 0.307 | 0.21 | 0.343 | 0.536 | 0.619 | 0.424 | 0.397 | 0.248 | 0.196 | 0.234 | 0.25 | 0.231 | 0.714 | – | 0.732 | 0.669 | 0.535 |
| HCC-78 | 0.765 | 0.706 | 1.15 | 0.559 | 1.02 | 0.202 | 0.185 | 0.889 | – | 0.225 | 0.421 | 0.557 | 0.566 | 0.81 | 0.551 | 0.686 | 0.702 | 0.874 | 0.485 | 0.583 |
| A-427 | 0.702 | 0.567 | – | 0.559 | 0.552 | 0.703 | – | 0.688 | 0.613 | 0.675 | 0.375 | 0.332 | 0.243 | 0.282 | 0.227 | 0.684 | 0.441 | – | 0.576 | 0.328 |
| NCI-H3122 | 0.223 | 0.266 | 0.222 | 0.273 | 0.193 | 0.547 | 0.63 | 0.785 | 0.557 | 0.382 | 0.367 | 0.391 | 0.327 | 0.339 | 0.305 | 1.01 | 0.917 | 0.916 | 0.93 | 1 |
| NCI-H1563 | – | – | – | – | – | 0.695 | 0.719 | 0.62 | 0.709 | 0.619 | 0.619 | 0.645 | 0.596 | 0.639 | 0.644 | – | – | – | – | – |
| SK-MES-1 | 0.56 | 0.582 | 0.497 | 0.489 | 0.478 | 0.37 | 0.265 | 0.394 | 0.348 | 0.34 | 0.661 | 0.649 | 0.61 | 0.635 | 0.518 | – | – | – | – | – |
| SW 1573 | 0.577 | 0.474 | 0.651 | 0.599 | 0.381 | 0.526 | 0.562 | 0.549 | 0.544 | 0.294 | 0.398 | 0.407 | 0.365 | 0.367 | 0.239 | – | – | – | – | – |
| NCI-H2347 | 0.25 | 0.273 | 0.275 | 0.32 | 0.285 | 0.623 | 0.596 | 0.855 | 0.731 | 0.494 | 0.296 | 0.357 | 0.461 | 0.598 | 0.42 | 0.779 | 0.783 | 0.781 | 0.724 | 0.591 |
| LC-2-ad | 0.847 | 0.76 | 0.835 | 0.908 | 0.886 | 0.548 | 0.458 | 0.622 | 0.547 | 0.322 | 0.54 | 0.557 | 0.614 | 0.628 | 0.609 | 0.845 | 0.756 | 0.634 | 0.785 | 0.81 |
| HCC-15 | 0.376 | 0.377 | 0.413 | 0.298 | 0.272 | 0.743 | 0.353 | 0.784 | 0.666 | 0.473 | 0.51 | 0.463 | 0.429 | 0.427 | 0.391 | 1.19 | 1.09 | 1.12 | 0.982 | 1.22 |
